Here are results for one compound from publication PMC12446476 (Nature Communications, 2025).

Molecules are shown by their SMILES. Values joined by “and” are separate entries in the source; they are usually repeats but may differ in a detail not shown here. Equal entries are not always repeated.

This data set has as its system E. coli WP2 uvrA. The experiment in a line: Ames assay, E. coli strain. It is filed as cell-based. The protocol:
Ames assays were performed using four strains of Salmonella typhimurium (TA1535, TA1537, TA98 and TA100) and a single strain of E. coli (WRP2 uvrA) in the presence and absence of S9 tissue homogenate. Dose levels (µg/plate) up to 4000 were assessed for WP2 uvrA and TA98, 500 for TA1535, 250 for TA1537 and 62.5 for TA100.
On the technique in general: The Ames test uses bacterial strains that need an amino acid and regain growth without it when mutated back.

As for `Cc1c(CN(C)C(=O)/C=C/c2cnc3c(c2)N[C@H](C)[C@H](OP(=O)([O-])[O-])C(=O)N3)oc2ccccc12.[Na+].[Na+]` [Debio 1453 P], the “Ames bacterial mutation assessment, Mean” value (with S9, 62.5 µg/plate) is listed as 32; the “Ames bacterial mutation assessment, Mean” value (with S9, 250 µg/plate) turned out to be 31; the “Ames bacterial mutation assessment, Mean” value (with S9, 500 µg/plate) is listed as 34; the “Ames bacterial mutation assessment, Mean” value (with S9, 1000 µg/plate) amounted to 28; the “Ames bacterial mutation assessment, Mean” value (with S9, 2000 µg/plate) stood at 26; the “Ames bacterial mutation assessment, Mean” value (with S9, 4000 µg/plate) is given as 25. The “Ames bacterial mutation assessment, Mean” value runs as follows: (without S9, 62.5 µg/plate) 32; (without S9, 250 µg/plate) 26; (without S9, 500 µg/plate) 25; (without S9, 1000 µg/plate) 24; (without S9, 2000 µg/plate) 24; (without S9, 4000 µg/plate) 22. Also, the Colony count (with S9, 62.5 µg/plate) was 33 and 34 and 28; the Colony count (with S9, 250 µg/plate) is 33 and 31 and 30; the Colony count (with S9, 500 µg/plate) was 34 and 36 and 31; the Colony count (with S9, 1000 µg/plate) is 26 and 30 and 28; the Colony count (with S9, 2000 µg/plate) is 27 and 26 and 25; the Colony count (with S9, 4000 µg/plate) is 25 and 26 and 23. Moreover, the Colony count (without S9, 62.5 µg/plate) was 31 and 30 and 36; the Colony count (without S9, 250 µg/plate) is 26 and 28 and 25; the Colony count (without S9, 500 µg/plate) was 21 and 26 and 27; the Colony count (without S9, 1000 µg/plate) is 25 and 24; the Colony count (without S9, 2000 µg/plate) is 21 and 25; the Colony count (without S9, 4000 µg/plate) was 23 and 18 and 24.
